Results reported in US9546393B2, “Mass spectrometry quantitation of P450 isoforms in hepatocytes” (DH Technologies Development Pte. Ltd., priority 2009, dated 2017).

Experiments:
CYP 3A4 = CYP 3A4 induction in treated primary human hepatocytes (RNA assay, enzyme activity assay, LC-MSMS protein assay; FIG. 8); conditions: 72 hours, 3-MC 2 μM, PB 1 mM
CYP 1A2 [1] = assay: RNA assay (mRNA by qRT-PCR, Taqman) for CYP 1A2 in treated human hepatocytes; assay type: cell-based; conditions: primary human hepatocytes, 72 hours; 3-MC 2 μM; FIG. 7
CYP 2B6 = CYP 2B6 induction in treated primary human hepatocytes (RNA assay, enzyme activity assay, LC-MSMS protein assay; FIG. 6); assay type: cell-based; conditions: 72 hours, 3-MC 2 μM
Description: Flow rate was 700 μL/min.
The PB is a prototypical inducer for CYP 2B6, by CAR nuclear receptor activation.

CYP 1A2 [2] = conditions: primary human hepatocytes, 72 hours; PB 1 mM, RIF 10 μM; FIG. 7

Row | SMILES | changes in expression of CYP 3A4 (induction) (CYP 3A4) | CYP 1A2 RNA level in RNA assay (CYP 1A2 [1]) | changes in expression of CYP 2B6 (induction) (CYP 2B6) | changes in expression of CYP 1A2 (induction) (CYP 1A2 [2])
1 | Cc1ccc2cc3c(ccc4ccccc43)c3c2c1CC3 [3-MC, 3-methylcholanthrene] | minimally induces | very high levels of RNA | induces basal levels | –
2 | CCC1(c2ccccc2)C(=O)NC(=O)NC1=O [PB, phenobarbital] | significantly induces | – | – | basal levels of 1A2, if any
